Columns and labels:
Assay in all cases: cells
LAN-6 = type: functional, cell-based, Homo sapiens; settings: Homo sapiens, LAN-6;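 further: growth inhibition of LAN-6 cells, determined with a cell viability assay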
Description: SANGER: Inhibition of human LAN-6 cell growth in a cell viability assay.

SCC-25 = type: functional, cell-based, Homo sapiens; settings: Homo sapiens, SCC-25;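 further: growth inhibition of SCC-25 cells, measured with a cell viability assay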
Description: SANGER: Inhibition of human SCC-25 cell growth in a cell viability assay.

KP-N-YN = type: functional, cell-based; settings: Homo sapiens;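 further: growth inhibition of KP-N-YN cells, read out with a cell viability assay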
Description: SANGER: Inhibition of human KP-N-YN cell growth in a cell viability assay.

UACC-893 = type: functional, cell-based, Homo sapiens; settings: Homo sapiens, UACC-893
Description: SANGER: Inhibition of human UACC-893 cell growth in a cell viability assay.

COLO-741 = type: functional, cell-based, Homo sapiens; settings: Homo sapiens, COLO-741
Description: SANGER: Inhibition of human COLO-741 cell growth in a cell viability assay.

RCC10RGB = type: functional, cell-based, Homo sapiens; settings: Homo sapiens, RCC10RGB;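 further: growth inhibition of human RCC10RGB cells, read out by a cell viability assay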
Description: SANGER: Inhibition of human RCC10RGB cell growth in a cell viability assay.

RCM-1 = type: functional, cell-based, Homo sapiens; settings: Homo sapiens, RCM-1;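 further: growth inhibition of the RCM-1 line, determined with a cell viability readout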
Description: SANGER: Inhibition of human RCM-1 cell growth in a cell viability assay.

SCC-9 = type: functional, cell-based, Homo sapiens; settings: Homo sapiens, SCC-9;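 further: Read-out is a cell viability assay, with values giving inhibition of cell growth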
Description: SANGER: Inhibition of human SCC-9 cell growth in a cell viability assay.

NCI-H2347 = type: functional, cell-based, Homo sapiens; settings: Homo sapiens, NCI-H2347;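 further: growth inhibition of the cell line, read out with a cell viability assay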
Description: SANGER: Inhibition of human NCI-H2347 cell growth in a cell viability assay.

SK-LU-1 = type: functional, cell-based, Homo sapiens; settings: Homo sapiens, SK-LU-1;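 further: cell viability assay measuring growth inhibition of human SK-LU-1 cells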
Description: SANGER: Inhibition of human SK-LU-1 cell growth in a cell viability assay.

ONS-76 = type: functional, cell-based, Homo sapiens; settings: Homo sapiens, ONS-76;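 further: growth inhibition of human ONS-76 cells, read out with a cell viability assay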
Description: SANGER: Inhibition of human ONS-76 cell growth in a cell viability assay.

NCI-H810 = type: functional, cell-based, Homo sapiens; settings: Homo sapiens, NCI-H810;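 further: IC50 reflects inhibition of cancer cell line growth, read out with a cell viability assay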
Description: SANGER: Inhibition of human NCI-H810 cell growth in a cell viability assay.

NCI-H2405 = type: functional, cell-based, Homo sapiens; settings: Homo sapiens, NCI-H2405;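 further: growth inhibition of the human cell line, read out with a cell viability assay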
Description: SANGER: Inhibition of human NCI-H2405 cell growth in a cell viability assay.

Hs-578T = type: functional, cell-based, Homo sapiens; settings: Homo sapiens, Hs-578T
Description: SANGER: Inhibition of human Hs-578-T cell growth in a cell viability assay.

D-502MG = type: functional, cell-based, Homo sapiens; settings: Homo sapiens, D-502MG
Description: SANGER: Inhibition of human D-502MG cell growth in a cell viability assay.

ALL-PO = type: functional, cell-based; settings: Homo sapiens;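 further: growth inhibition of ALL-PO cells, read out by a cell viability assay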
Description: SANGER: Inhibition of human ALL-PO cell growth in a cell viability assay.

Ca-Ski = type: functional, cell-based; settings: Homo sapiens;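 further: cell viability assay measuring inhibition of Ca-Ski cell growth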
Description: SANGER: Inhibition of human Ca-Ski cell growth in a cell viability assay.

GT3TKB = type: functional, cell-based, Homo sapiens; settings: Homo sapiens, GT3TKB;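 further: growth inhibition of the cell line, read out with a cell viability assay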
Description: SANGER: Inhibition of human GT3TKB cell growth in a cell viability assay.

GI-ME-N = type: functional, cell-based, Homo sapiens; settings: Homo sapiens, GI-ME-N;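 further: growth inhibition of human GI-ME-N cells, read out with a cell viability assay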
Description: SANGER: Inhibition of human GI-ME-N cell growth in a cell viability assay.

OE19 = type: functional, cell-based, Homo sapiens; settings: Homo sapiens, OE19;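 further: growth inhibition of OE19 cells, measured through a cell viability read-out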
Description: SANGER: Inhibition of human OE19 cell growth in a cell viability assay.

RXF 393 = type: functional, cell-based; settings: Homo sapiens;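 further: growth inhibition of human RXF 393 cells, read out with a cell viability assay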
Description: SANGER: Inhibition of human RXF393 cell growth in a cell viability assay.

HT1197 = type: functional, cell-based, Homo sapiens, HT-1197; settings: Homo sapiens, HT1197
Description: SANGER: Inhibition of human HT-1197 cell growth in a cell viability assay.

MOLT-4 = type: functional, cell-based; settings: Homo sapiens;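 further: growth inhibition of MOLT-4 cells, determined with a cell viability readout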
Description: SANGER: Inhibition of human MOLT-4 cell growth in a cell viability assay.

NCI-H358 = type: functional, cell-based, Homo sapiens; settings: Homo sapiens, NCI-H358;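 further: growth inhibition of NCI-H358 human cells, read out with a cell viability assay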
Description: SANGER: Inhibition of human NCI-H358 cell growth in a cell viability assay.

RS4-11 = type: functional, cell-based; settings: Homo sapiens;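 further: growth inhibition of RS4-11 cells, read out by a cell viability assay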
Description: SANGER: Inhibition of human RS4-11 cell growth in a cell viability assay.

HCC1569 = type: functional, cell-based, Homo sapiens; settings: Homo sapiens, HCC1569;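 further: growth inhibition of human HCC1569 cells, read out with a cell viability assay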
Description: SANGER: Inhibition of human HCC1569 cell growth in a cell viability assay.

WM-115 = type: functional, cell-based, Homo sapiens; settings: Homo sapiens, WM-115
Description: SANGER: Inhibition of human WM-115 cell growth in a cell viability assay.

BV-173 = type: functional, cell-based; settings: Homo sapiens
Description: SANGER: Inhibition of human BV-173 cell growth in a cell viability assay.

KYSE-150 cell line = type: functional, cell-based, Homo sapiens; settings: Homo sapiens, KYSE-150;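 further: growth inhibition of human KYSE-150 cells, read out with a cell viability assay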
Description: SANGER: Inhibition of human KYSE-150 cell growth in a cell viability assay.

COR-L23 = type: functional, cell-based, Homo sapiens; settings: Homo sapiens, COR-L23;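 further: cell viability assay measuring how strongly compounds suppress growth of COR-L23 cells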
Description: SANGER: Inhibition of human COR-L23 cell growth in a cell viability assay.

MDA-MB-361 = type: functional, cell-based, Homo sapiens; settings: Homo sapiens, MDA-MB-361
HCC70 = type: functional, cell-based, Homo sapiens; settings: Homo sapiens, HCC70;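 further: cell viability assay measuring how strongly the compound suppresses proliferation of HCC70 cells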
Description: SANGER: Inhibition of human HCC70 cell growth in a cell viability assay.

L-363 = type: functional, cell-based; settings: Homo sapiens
Description: SANGER: Inhibition of human L-363 cell growth in a cell viability assay.

SK-MEL3 = type: functional, cell-based, Homo sapiens, SK-MEL-3; settings: Homo sapiens, SK-MEL3;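 further: growth inhibition of human SK-MEL-3 cells, read out with a cell viability assay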
Description: SANGER: Inhibition of human SK-MEL-3 cell growth in a cell viability assay.

KYSE-450 = type: functional, cell-based; settings: Homo sapiens;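 further: cell growth inhibition measured by a viability assay in human KYSE-450 cells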
Description: SANGER: Inhibition of human KYSE-450 cell growth in a cell viability assay.

LoVo = type: functional, cell-based; settings: Homo sapiens;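 further: growth inhibition of human LoVo cells, read out with a cell viability assay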
Description: SANGER: Inhibition of human LoVo cell growth in a cell viability assay.

BT-474 = type: functional, cell-based, Homo sapiens; settings: Homo sapiens, BT-474
Description: SANGER: Inhibition of human BT-474 cell growth in a cell viability assay.

HEC-1 = type: functional, cell-based, Homo sapiens; settings: Homo sapiens, HEC-1;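 further: growth inhibition of the cell line, read out with a cell viability assay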
Description: SANGER: Inhibition of human HEC-1 cell growth in a cell viability assay.

JVM-3 = type: functional, cell-based; settings: Homo sapiens;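 further: growth inhibition of human JVM-3 cells, read out with a cell viability assay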
Description: SANGER: Inhibition of human JVM-3 cell growth in a cell viability assay.

TYK-nu = type: functional, cell-based, Homo sapiens; settings: Homo sapiens, TYK-nu;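 further: growth inhibition of human TYK-nu cells, read out by a cell viability assay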
Description: SANGER: Inhibition of human TYK-nu cell growth in a cell viability assay.

D-392MG = type: functional, cell-based, Homo sapiens; settings: Homo sapiens, D-392MG
HT-1080 = type: functional, cell-based, Homo sapiens; settings: Homo sapiens, HT-1080
Description: SANGER: Inhibition of human HT-1080 cell growth in a cell viability assay.

GMS-10 = type: functional, cell-based, Homo sapiens; settings: Homo sapiens, GMS-10;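 further: growth inhibition of GMS-10 cells, read out as cell viability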
Description: SANGER: Inhibition of human GMS-10 cell growth in a cell viability assay.

NCI-H2087 = type: functional, cell-based, Homo sapiens; settings: Homo sapiens, NCI-H2087;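 further: growth inhibition determined with a cell viability readout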
Description: SANGER: Inhibition of human NCI-H2087 cell growth in a cell viability assay.

LU-134-A = type: functional, cell-based; settings: Homo sapiens
Description: SANGER: Inhibition of human LU-134-A cell growth in a cell viability assay.

MV4-11 = type: functional, cell-based, MV-4-11; settings: Homo sapiens;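 further: cell viability readout measuring growth inhibition of human MV-4-11 cells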
Description: SANGER: Inhibition of human MV-4-11 cell growth in a cell viability assay.

EW-24 = type: functional, cell-based; settings: Homo sapiens;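 further: human EW-24 cancer cell line, growth inhibition read out via a cell viability assay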
Description: SANGER: Inhibition of human EW-24 cell growth in a cell viability assay.

SW780 = type: functional, cell-based, Homo sapiens; settings: Homo sapiens, SW780;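 further: growth inhibition of the cells, read out with a cell viability assay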
Description: SANGER: Inhibition of human SW780 cell growth in a cell viability assay.

KYSE-140 = type: functional, cell-based, Homo sapiens; settings: Homo sapiens, KYSE-140;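 further: cell viability assay measuring growth inhibition in human KYSE-140 cells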
Description: SANGER: Inhibition of human KYSE-140 cell growth in a cell viability assay.

CCRF-CEM = type: functional, cell-based; settings: Homo sapiens;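 further: inhibition of CCRF-CEM cell growth, measured by a cell viability assay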
Description: SANGER: Inhibition of human CCRF-CEM cell growth in a cell viability assay.

MZ7-mel = type: functional, cell-based, Homo sapiens; settings: Homo sapiens, MZ7-mel;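 further: growth inhibition of human MZ7-mel cells, measured by a cell viability assay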
Description: SANGER: Inhibition of human MZ7-mel cell growth in a cell viability assay.

CC(=O)O[C@@]12CO[C@@H]1C[C@H](O)[C@@]1(C)C(=O)[C@H](O)C3=C(C)[C@@H](OC(=O)[C@H](O)[C@@H](NC(=O)OC(C)(C)C)c4ccccc4)C[C@@](O)([C@@H](OC(=O)c4ccccc4)[C@H]21)C3(C)C [DOCETAXEL]
IC50 (LAN-6): > 10 nM | IC50 (SCC-25): 0.68 nM | IC50 (KP-N-YN): > 10 nM | IC50 (UACC-893): > 10 nM | IC50 (COLO-741): 8.2 nM | IC50 (RCC10RGB): > 10 nM | IC50 (RCM-1): > 10 nM | IC50 (SCC-9): 1.32 nM | IC50 (NCI-H2347): > 10 nM | IC50 (SK-LU-1): > 10 nM | IC50 (ONS-76): 3.22 nM | IC50 (NCI-H810): 6.22 nM | IC50 (NCI-H2405): > 10 nM | IC50 (Hs-578T): 2.72 nM | IC50 (D-502MG): 4.1 nM | IC50 (ALL-PO): 8.6 nM | IC50 (Ca-Ski): 0.728 nM | IC50 (GT3TKB): 0.232 nM | IC50 (GI-ME-N): 3.58 nM | IC50 (OE19): 5.59 nM | IC50 (RXF 393): 2.22 nM | IC50 (HT1197): > 10 nM | IC50 (MOLT-4): 4.71 nM | IC50 (NCI-H358): 7.58 nM | IC50 (RS4-11): > 10 nM | IC50 (HCC1569): > 10 nM | IC50 (WM-115): 6.27 nM | IC50 (BV-173): 5.3 nM | IC50 (KYSE-150 cell line): 4.99 nM | IC50 (COR-L23): 2.2 nM | IC50 (MDA-MB-361): 2.81 nM | IC50 (HCC70): 2.77 nM | IC50 (L-363): 3.76 nM | IC50 (SK-MEL3): > 10 nM | IC50 (KYSE-450): 1.43 nM | IC50 (LoVo): > 10 nM | IC50 (BT-474): > 10 nM | IC50 (HEC-1): 3.03 nM | IC50 (JVM-3): 2.33 nM | IC50 (TYK-nu): 2.32 nM | IC50 (D-392MG): > 10 nM | IC50 (HT-1080): 0.501 nM | IC50 (GMS-10): 0.941 nM | IC50 (NCI-H2087): 7.48 nM | IC50 (LU-134-A): > 10 nM | IC50 (MV4-11): 1.74 nM | IC50 (EW-24): 4.33 nM | IC50 (SW780): 0.587 nM | IC50 (KYSE-140): 0.933 nM | IC50 (CCRF-CEM): > 10 nM | IC50 (MZ7-mel): > 10 nM

CN(Cc1cnc2nc(N)nc(N)c2n1)c1ccc(C(=O)N[C@@H](CCC(=O)O)C(=O)O)cc1 [METHOTREXATE]
IC50 (LAN-6): > 200 nM | IC50 (SCC-25): > 200 nM | IC50 (KP-N-YN): > 200 nM | IC50 (UACC-893): > 200 nM | IC50 (COLO-741): 162 nM | IC50 (RCC10RGB): > 200 nM | IC50 (RCM-1): > 200 nM | IC50 (SCC-9): > 200 nM | IC50 (NCI-H2347): > 200 nM | IC50 (SK-LU-1): > 200 nM | IC50 (ONS-76): 63.8 nM | IC50 (NCI-H810): > 200 nM | IC50 (NCI-H2405): > 200 nM | IC50 (Hs-578T): > 200 nM | IC50 (D-502MG): > 200 nM | IC50 (ALL-PO): 5.86 nM | IC50 (Ca-Ski): > 200 nM | IC50 (GT3TKB): > 200 nM | IC50 (GI-ME-N): 147 nM | IC50 (OE19): > 200 nM | IC50 (RXF 393): > 200 nM | IC50 (HT1197): > 200 nM | IC50 (MOLT-4): 21.2 nM | IC50 (NCI-H358): > 200 nM | IC50 (RS4-11): 7.05 nM | IC50 (HCC1569): > 200 nM | IC50 (WM-115): > 200 nM | IC50 (BV-173): 6.35 nM | IC50 (KYSE-150 cell line): 115 nM | IC50 (COR-L23): 122 nM | IC50 (MDA-MB-361): > 200 nM | IC50 (HCC70): > 200 nM | IC50 (L-363): 14.3 nM | IC50 (SK-MEL3): > 200 nM | IC50 (KYSE-450): > 200 nM | IC50 (LoVo): > 200 nM | IC50 (BT-474): > 200 nM | IC50 (HEC-1): > 200 nM | IC50 (JVM-3): 16 nM | IC50 (TYK-nu): 197 nM | IC50 (D-392MG): 158 nM | IC50 (HT-1080): > 200 nM | IC50 (GMS-10): > 200 nM | IC50 (NCI-H2087): > 200 nM | IC50 (LU-134-A): 88.7 nM | IC50 (MV4-11): 19.4 nM | IC50 (EW-24): > 200 nM | IC50 (SW780): 116 nM | IC50 (KYSE-140): > 200 nM | IC50 (CCRF-CEM): > 200 nM | IC50 (MZ7-mel): > 200 nM

Source: ChEMBL document CHEMBL1201861, “Genomics of Drug Sensitity in Cancer screening data, Wellcome Trust Sanger Institute”
